Assay results from patent publication US7307102B2, “Method of preventing or treating estrogen-dependent diseases and disorders” (Duke University, priority 1997, dated 2007).

Key:
MCF-7/LCC2 = assay: LCC2 study, MCF-7/LCC2 tumors in nude mice; assay type: in vivo, mouse; conditions: after 8 weeks, 1.0 mg every three days, FIG. 11
Protocol: This experiment was conducted to determine the ability of GW5638 to retard the growth of this cell line in nude mice relative to control or tamoxifen treated tumors.
40 OVX mice were prepared to accept cells and grouped as follows:
Control animals received nothing and groups 3 and 4 received 0.1 ml injections in corn oil every three days. Tumors were measured Q3 days with calipers, and the area calculated as follows: Area=½×w/2×π.

[1] = Uterotrophic assay in immature rats; conditions: 21 day old immature rats, oral
Protocol: FIG. 5. […] The data shown represent the mean value (±SEM).
Twenty-one day old female Sprague-Dawley rats (30-35 gms) were obtained from Harlan or Taconic Laboratories. Animals were sorted randomly into treatment groups of five, and average weights were recorded for each treatment group. Weights were recorded on each treatment day. […] On day of dosing, drug was diluted in 0.5% methyl cellulose, viscosity of 2% at 25° C.:400 centipoises (Sigma, St. Louis, Mo.)). Oral dosing by gavage was based on a total volume of 10 ml/kg body weight. […] Subcutaneous dosing was based on a total of 2 ml/kg body weight. […] On day 4, animals were sacrificed by C02 asphyxiation, body weights were obtained and uteri were removed, blotted and weighed. Data were expressed as uterine weight/body weight.
In this assay, uterine wet weight was used as a measure of ER-agonist activity in this tissue (FIG. 5).

ER-TAF1 = assay: C3 promoter-luciferase cotransfection assay in HepG2 cells, ER-TAF1 (AF-2 disrupted); assay type: cell-based, human; conditions: for agonist activity on ER-TAF1: ER-TAF1, compound alone, FIG. 1B
Source text: (§1) FIGS. 1A and 1B. […] The human C3 promoter (−1807 to +58) fused to the firefly luciferase reporter gene was transfected along with an expression plasmid containing (FIG. 1A) the wild-type human estrogen receptor (ERwt), or (FIG. 1B) a mutated ER in which the AF-2 function had been disrupted (ER-TAFl) into HepG2 cells and tested for transcriptional activation in the presence of increasing concentrations of ER-modulator as indicated. Transfections were normalized for efficiency and cell number by cotransfecting an expression plasmid containing β-galactosidase. The normalized response was obtained by dividing light units by the activity of β-galactosidase as measured in an enzymatic assay. Triplicate transfections were performed. The data shown are representative of multiple experiments performed under similar conditions.
(§2) FIGS. 2A-2C. […] FIG. 2A. […] FIG. 2B. […] FIG. 2C. […] Transfections were normalized for efficiency and cell number by cotransfecting an expression plasmid containing β-galactosidase. The normalized response was obtained by dividing light units by the activity of β-galactosidase as measured in an enzymatic assay. Representative assays are shown in which triplicate transfections were performed. Error bars represent the standard error of the mean (SEM).
(§3) HepG2 cells were maintained in Modified Eagles Medium (MEM) (Life Technologies, Grand Island, N.Y.) plus 10% Fetal Calf Serum (FCS) (Life Technologies). Cells were plated in 24 well plates (coated with gelatin) 24 hours prior to transfection. DNA was introduced into the cells using Lipofectin (Life Technologies). Briefly, triplicate transfections were performed using 3 μg of total DNA. For standard transfections, 500 ng of pCMV-β-Gal (normalization vector), 1500 ng reporter (variable) and 1000 ng receptor (pRST7-hER (Dana et al, Mol. Endocrinol. 8:1193-1207 (1994)) were used for each triplicate. Incubation of the cells with Lipofectin proceeded for 3 hrs, at which time media was removed, cells were washed with PBS and then induced with the appropriate hormone diluted in phenol red-free media containing 10% charcoal stripped CS (Cyclone Inc.). Incubation with hormone continued for 48 hrs, after which cells were lysed and assayed for luciferase and β-galactosidase activity as previously described (Norris et al, JBC 270:22777-22782 (1995)).
(§4) A series of in vitro screens have been developed that permit the classification of ER-modulators into four mechanistically distinct groups (Tzukerman et al, Mol. Endocrinol. 8:21-30 (1994)). […] Using these assays, it has been possible to derive “fingerprints” of known ER-modulators (McDonnell et al, Mol. Endocrinol. 9:659-669 (1995)).
(§5) Subsequently, the transfected cells were assayed for luceriferase and β-galactosidase activity. Each data point in this experiment represents the average of triplicate determinations of the transcriptional activity under given experimental conditions.

ER-VP16 = ER-VP16 reporter of nuclear localization and DNA binding status of ER; assay type: cell-based
Source text: This was addressed using a modified ER (ER-VP16) to report on the nuclear localization and the DNA binding status of ER within a cell following ligand binding. This modified protein behaves exactly like ER in all respects except it activates transcription upon interaction with an estrogen response element (ERE) independent of the nature of the bound ligand (McDonnell et al, Mol. Endocrinol. 9:659-669 (1995)).

MCF-7 cells = assay: [3H]-thymidine incorporation, E2 stimulated MCF-7 cell proliferation; assay type: cell-based, human; conditions: FIG. 19
Protocol: Experimental Design: Plate between 25,000 and 50,000 cells per well onto 24-well plates. Cells are plated in phenol red-free media. After attachment, cells are stimulated with either antiestrogen alone or estrogen and antiestrogen. Induction time ranges from 12-48 hours, depending on experiment.
Add 4λ (4 μCi) thymidine, [methyl-^3H]-to each well.
Incubate at 37° C. for 2-4 hours.
Aspirate media and wash twice with ice cold PBS.
Wash once with ice cold 10% TCA (trichloroacetic acid).
Add 2 mL 10% TCA to each well.
Incubate at 4° C. for 1-2 hours.
Transfer each well to scintillation vial containing 2 mL scintillation fluid.

ERβ = ERβ (Homo sapiens, UniProt Q92731); conditions: HeLa cells, estradiol (10^−9), FIG. 14B
Sequence of ERβ (Q92731 whole entry): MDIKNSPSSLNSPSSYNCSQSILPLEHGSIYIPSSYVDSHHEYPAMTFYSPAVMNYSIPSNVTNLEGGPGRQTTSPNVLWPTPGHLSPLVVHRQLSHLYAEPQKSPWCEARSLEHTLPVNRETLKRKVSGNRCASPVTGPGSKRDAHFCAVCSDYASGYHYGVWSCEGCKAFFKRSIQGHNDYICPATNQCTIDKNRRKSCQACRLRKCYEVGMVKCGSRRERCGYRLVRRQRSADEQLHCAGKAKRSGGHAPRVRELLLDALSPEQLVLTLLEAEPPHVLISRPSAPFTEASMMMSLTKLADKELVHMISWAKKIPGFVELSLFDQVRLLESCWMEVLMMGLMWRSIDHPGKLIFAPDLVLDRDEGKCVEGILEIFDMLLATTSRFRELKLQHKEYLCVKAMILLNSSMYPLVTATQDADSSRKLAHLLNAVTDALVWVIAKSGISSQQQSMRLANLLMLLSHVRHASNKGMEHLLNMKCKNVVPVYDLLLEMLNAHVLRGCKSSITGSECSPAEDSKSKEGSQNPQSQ
Source text: (§6) HeLa cells were transfected with either an ERα expression vector (see FIG. 14A) or an ERβ expression vector (see FIG. 14B) together with an estrogen responsive ERE-TK-luceriferase reporter construct.

[2] = target: T1, wild-type human estrogen receptor (ERwt) (Homo sapiens, UniProt P03372); assay: C3 promoter-luciferase cotransfection assay in HepG2 cells, ERwt; assay type: cell-based
T1 construct: expressed in transfected cells; host or cells: HepG2
T1 sequence (P03372 1-595): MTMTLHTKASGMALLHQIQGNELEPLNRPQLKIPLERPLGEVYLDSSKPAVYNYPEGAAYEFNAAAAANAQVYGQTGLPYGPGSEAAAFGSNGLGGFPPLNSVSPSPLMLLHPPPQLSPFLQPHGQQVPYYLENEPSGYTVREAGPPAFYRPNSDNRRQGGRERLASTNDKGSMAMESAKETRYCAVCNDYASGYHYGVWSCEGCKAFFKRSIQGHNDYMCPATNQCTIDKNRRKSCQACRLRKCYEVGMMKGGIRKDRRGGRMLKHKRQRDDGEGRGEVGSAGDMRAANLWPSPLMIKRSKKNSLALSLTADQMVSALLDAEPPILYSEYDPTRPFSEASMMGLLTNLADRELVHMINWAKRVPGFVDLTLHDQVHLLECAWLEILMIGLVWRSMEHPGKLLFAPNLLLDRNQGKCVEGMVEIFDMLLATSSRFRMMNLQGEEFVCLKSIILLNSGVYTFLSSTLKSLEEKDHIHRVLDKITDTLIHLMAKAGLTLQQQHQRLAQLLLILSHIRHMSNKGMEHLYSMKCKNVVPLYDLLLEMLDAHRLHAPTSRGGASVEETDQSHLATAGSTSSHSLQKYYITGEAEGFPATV
Source text: as §1, §2, §3, §4, §5

human ER = target: T2, human ER (Homo sapiens, UniProt P03372); assay type: cell-based; conditions: MCF-7 cells, in the presence of 17-β-estradiol, 48 h, FIG. 12
T2 construct: expressed in transfected cells; host or cells: MCF-7

ERα = target: T3, ERα (Homo sapiens, UniProt P03372); assay type: cell-based; conditions: HeLa cells, estradiol (10^−9), FIG. 14A
T3 construct: expressed in transfected cells; host or cells: HeLa
Source text: as §6

[3] = Bone mineral density in ovariectomized rats (DEXA, pQCT); assay type: in vivo, rat; conditions: 90-day old OVX rats, oral, 28 days, FIG. 3A
Protocol: FIGS. 3A and 3B. […] FIG. 3A. […] FIG. 3B.
Animal preparation. […] At sacrifice, animals were euthanized with C02, body weights were recorded and the uteri were removed and weighed. Uterus, vagina and mammary tissue were fixed in 10% neutral buffered formalin. Samples for histologic processing were taken from the mid-point of each uterine horn. Tissue samples were embedded in paraffin, stained with haematoxylin and eosin and evaluated microscopically. Lumbar vertebrae and both left and right tibiae were excised. Total blood cholesterol was measured (Roche Biomedical Laboratories).

CC/C(=C(\c1ccccc1)c1ccc(OCCN(C)C)cc1)c1ccccc1 [tamoxifen, reference compound]
tumor growth (MCF-7/LCC2): equally inhibit growth of this tumor | lowest dose with uterotrophic activity [1]: 0.1 µmol/kg/day

C[C@]12CC[C@@H]3c4ccc(O)cc4C[C@@H](CCCCCCCCC[S+]([O-])CCCC(F)(F)C(F)(F)F)[C@H]3[C@@H]1CC[C@@H]2O (stereo partly drawn) [ICI182,780, reference compound]
agonist activity on ER-TAF1 (ER-TAF1): functionally inactive | interaction of ER with target DNA (ER-VP16): facilitate efficient interactions of ER with target DNA

CC/C(=C(\c1ccc(O)cc1)c1ccc(/C=C/C(=O)O)cc1)c1ccccc1 [GW7604]
E2 stimulated MCF-7 cell proliferation (MCF-7 cells): Inhibits E2 Stimulated MCF-7 Cell Proliferation | inhibition of estradiol activated transcription, ERβ (ERβ): potent pan-antagonist of both forms of the human estrogen receptor | reversal of the inverse agonist activity of ICI182,780 ([2]; C3 promoter, co-addition with ICI182,780, FIG. 2C): completely reversed | inhibition of the agonist activity manifested by tamoxifen or estradiol ([2]; ERwt, 10^−8M 17-β-estradiol or tamoxifen, FIG. 2A): inhibited | agonist / inverse agonist activity on the C3 promoter ([2]; ERwt, compound alone, FIG. 1A/2A): do not demonstrate any agonist or antagonist activity | antiestrogen activity on C3-Luc transcription (human ER): Functions as an Antiestrogen | inhibition of the partial agonist activity of raloxifene on ER-TAF1 (ER-TAF1; ER-TAF1): inhibited | inhibition of estradiol- and tamoxifen-induced ER-TAF1 transcriptional activity (ER-TAF1; ER-TAF1, FIG. 2B): capable of inhibiting | agonist activity on ER-TAF1 (ER-TAF1): functionally inactive | agonist activity on ER mutants (ER-TAF1; any ER-mutant examined, FIG. 13): does not exhibit agonist activity | interaction of ER with target DNA (ER-VP16): facilitate efficient interactions of ER with target DNA | inhibition of estradiol activated transcription, ERα (ERα): potent pan-antagonist of both forms of the human estrogen receptor

O=C(c1ccc(OCCN2CCCCC2)cc1)c1c(-c2ccc(O)cc2)sc2cc(O)ccc12 [raloxifene, reference compound]
inhibition of estradiol activated transcription, ERβ (ERβ): neither raloxifene nor idoxifene manifest potent antagonist activity

C[C@]12CC[C@@H]3c4ccc(O)cc4CC[C@H]3[C@@H]1CC[C@@H]2O [estradiol, 17β-estradiol, reference compound]
bone mineral density, lumbar spine [3]: BMD was maintained
